Source: ChEMBL document CHEMBL1142166, “Inhibition of antiassociation activity of translation initiation factor 3 by paromomycin” (2007)
Calls of active or inactive are those of the source. No cut-off for these calls is given here.

Experiments:
[1] = target: T1, Translation initiation factor IF-3 (Escherichia coli K-12) (UniProt P0A707); test: Inhibition of Escherichia coli XL1-Blue IF3 antiassociation activity at 0.1 uM in the presence of 8.2 mM Mg2+
T1 sequence (whole entry): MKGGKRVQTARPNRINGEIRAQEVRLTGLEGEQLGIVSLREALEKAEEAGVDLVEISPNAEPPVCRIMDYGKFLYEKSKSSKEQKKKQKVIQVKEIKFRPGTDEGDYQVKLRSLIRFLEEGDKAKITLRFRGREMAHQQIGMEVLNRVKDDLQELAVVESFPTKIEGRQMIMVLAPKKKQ

[2] = target: T1, Translation initiation factor IF-3 (Escherichia coli K-12); test: Inhibition of Escherichia coli XL1-Blue IF3 binding to 30S subunit at 100 uM in presence of 8.2 mm Mg2+
[3] = test system: Escherichia coli; test: Association of ribosome subunits into 70S ribosome of Escherichia coli MRE600 in presence of 4 mM Mg2+; format: functional
[4] = test system: Escherichia coli; test: Association of ribosome subunits into 70S ribosome of Escherichia coli MRE600 in presence of 6 mM Mg2+; format: functional
[5] = test system: Escherichia coli; test: Association of ribosome subunits into 70S ribosome of Escherichia coli MRE600 assessed above 20 uM in the presence of 1 mM Mg2+; format: functional, organism-based
[6] = test system: Escherichia coli; test: Association of ribosome subunits into 70S ribosome of Escherichia coli MRE600 assessed upto 20 uM in the presence of 1 mM Mg2+; format: functional
[7] = test system: Escherichia coli; test: Association of ribosome subunits into 70S ribosome of Escherichia coli MRE600 at 0.1 mM in presence of 4 mM Mg2+; format: functional

For `NC[C@@H]1O[C@H](O[C@H]2[C@@H](O)[C@H](O[C@@H]3[C@@H](O)[C@H](N)C[C@H](N)[C@H]3O[C@H]3O[C@H](CO)[C@@H](O)[C@H](O)[C@H]3N)O[C@@H]2CO)[C@H](N)[C@@H](O)[C@@H]1O` [PAROMOMYCIN], the Activity [1] was “Active”, the Activity [2] was “inactive” and the Activity [3] was 40%. The Activity [4] was 55%, the Activity [5] was “inactive” and the Activity [6] was 50%. For the same compound, the Activity [7] was 70%.
